Reference: patent US20130039993A1, “ARGON-BASED INHALABLE GASEOUS MEDICAMENT AGAINST PERIPHERAL ORGAN DEFICIENCIES OR FAILURES” (L'Air Liquide, Societe Anonyme pour l'Etude et …, priority 2010, published 2013)

How the values were obtained:
[1] = system: kidneys isolated from rats; experiment: Renal function of grafted rat kidneys preserved 6 hours in a gaseous atmosphere (creatinine clearance, 24-hour albuminuria); type: in vivo, Wistar rats; conditions: days D7 and D14 after graft, kidney preserved 6 hours in 100% by volume gas; for creatinine clearance of the grafted kidneys: estimated, related back to 100 g of weight, FIG. 1
Description: (§1) To do this, kidneys isolated from rats intended for a transplantation were used.
(§2) 120 Wistar rats, weighing between 200 g and 250 g, were used while adhering to the Guide for the Care and Use of Laboratory Animals published by the National Institutes of Health.
(§3) The animals were operated upon under general anesthesia and the left kidneys were removed and then preserved in several gaseous atmospheres, namely: • Group A (according to the invention): argon (100% by volume) • Group B (comparative): xenon (100% by volume) • Group C (1st control): air (i.e. essentially N2/O2 mixture) • Group D (2nd control): nitrogen
(§4) The kidneys of a rat are preserved therein for 6 hours before being grafted onto another anesthetized rat according to the conditions previously described. The rats are kept under observation for 14 days.
(§5) In order to carry out an evaluation of the effectiveness of the protection produced by the various gases tested, the renal function and renal morphology of the grafted kidneys were examined.
The renal function was evaluated by calculating the creatinine clearance estimated and related back to 100 g of weight, and by measuring the 24-hour albuminuria.

[2] = system: kidneys isolated from rats; experiment: Renal morphology of grafted rat kidneys preserved 6 hours in a gaseous atmosphere (standard histology, histochemistry with anti-active caspase-3 and anti-CD10 antibodies); type: in vivo, Wistar rats; conditions: grafted kidneys preserved 6 hours in 100% by volume gas; for kidneys showing cell lysis with subconfluent coagulation necrosis (standard histology): share of kidneys of the group
Description: as §1, §2, §3, §4, §5
The renal morphology was evaluated by standard histology and histochemistry using anti-active caspase-3 and anti-CD10 antibodies.

Structure (SMILES)	albuminuria ([1]; 24-hour albuminuria, FIG. 2)	creatinine clearance of the grafted kidneys [1]	CD10 labeling (histochemistry; preservation of the tubule functional structure) ([2]; anti-CD10 antibody)	caspase-3 labeling (histochemistry; cell degeneration) ([2]; anti-active caspase-3 antibody)	kidneys showing cell lysis with subconfluent coagulation necrosis (standard histology) [2]
[Ar] [argon]	half as much in group A than in the other groups	preserved a good creatinine clearance	very well preserved	discrete and in foci	no kidney of group A under an argon atmosphere exhibited any sign of cell lysis or necrosis
[Xe] [xenon, reference compound]		slightly better with xenon, but significantly lower compared with argon			⅓
